Values joined by “and” are separate entries in the source; they are usually repeats but may differ in a detail not shown here. Identical values can stand only once.
Key:
[1] = tested on: Golgi apparatus in CHO cells; experiment: Changes in localization to the Golgi apparatus over time (fluorescence observation); assay type: cell-based, hamster; details: 1 μM, 1, 2, 6, 24 or 48 hours at 37° C.
Protocol: Subsequently, it was evaluated whether or not the localization of the compound 9 in the Golgi apparatus can be maintained over a long period of time. Specifically, by the method similar to that described above, the compound 9 or the NBD-C6-ceramide (negative control) (each of both is in 1 μM) was added, then the resultant mixture was cultured at 37° C. for 1, 2, 6, 24, or 48 hours, and the fluorescence (green) derived from the compound was observed.
The upper part of FIG. 4 is a set of pictures showing the results of the observation for the NBD-C6-ceramide (negative control), the pictures were taken by using a photomultiplier tube PMT:430. The middle part of FIG. 4 is a set of pictures showing the results of the observation for the compound 9, the pictures were taken by using a photomultiplier tube PMT:430. The lower part of FIG. 4 is a set of pictures showing the results of the observation for the compound. 9, the pictures were taken by using a photomultiplier tube PMT:500. At this point, the expression of “430” or “500” means detection sensitivity (size of the energy required to detect the emission derived from a compound), and the smaller the value, the higher the sensitivity. […]

[2] = tested on: Golgi apparatus in CHO cells; experiment: Evaluation of localization to the Golgi apparatus (co-staining with BODIPY-TR-Ceramide, confocal laser scanning microscope); assay type: cell-based, hamster; details: 1 μM, 1.5 hours, then BODIPY-TR-Ceramide 5 μM 30 minutes
Protocol: It was evaluated whether or not the localization of the compound 9 into a cell is really due to the localization to the Golgi apparatus. Specifically, BODIPY-TR-Ceramide (Cat D-7540 Red manufactured by Molecular Probes), which is another Golgi marker known to be difficult to be metabolized, was added together with the compound 9 into a cell, and the observation was performed by using a confocal laser scanning microscope.
Firstly, the CHO cells were seeded into each well of a 24-well plate at 0.5×10^4 cells/well, and cultured in a Ham's F12(+) medium at 37° C. for two days. […] After completion of the culture, the cells were washed twice in the same manner as described above, and then the fluorescence emission from the cells was observed. […] In addition, the time course of the cell culture and compound addition is the one recommended by data sheets or previous reports as the time course in which BODIPY-TR-Ceramide can be detected more sensitively. The observation was performed by using a confocal laser scanning microscope, and the measurement of the fluorescence emission from the BODIPY-TR-Ceramide was performed at the maximum excitation wavelength of 598 nm, and the maximum fluorescence wavelength of 617 nm, to measure the “red”. […]

[3] = tested on: CHO cells; experiment: Evaluation of cytotoxicity (alteration of cell shape); assay type: cell-based, hamster; details: 10 μM, serum-free medium, cultured one day
Protocol: As to the compound 9 synthesized in the above, the cytotoxicity was evaluated as the effect on the change in cell morphology.
As the cultured cells, cells obtained by the culture of CHO cells, which is a cell strain derived from the ovary of hamster, in a Ham's F12 medium were used.
Firstly, the CHO cells were seeded into each well of a 24-well plate at 2×10^4 cells/well, and cultured in a Ham's F12(+) medium at 37° C. for one day. After that, in order to eliminate the influence of ceramide, sphingosine, and the like, medium exchange to a medium in which 0.1% BSA and 10 mM HEPES are added into a Ham's F12(−) medium which is a serum-free medium was performed, and in the presence of the compound 9 (10 μM), the culture was further performed for one day. Further, as a negative control, the same experiment was performed with the a NBD-C6-ceramide described in Non Patent Literature 1.

[4] = tested on: CHO cells; experiment: Evaluation of intracellular metabolism by TLC; assay type: in vitro ADME, hamster; details: 10 μM
Protocol: (§1) Firstly, the CHO cells were seeded into each well of a 24-well plate at 2×10^4 cells/well, and cultured in a Ham's F12(+) medium at 37° C. for one day. After that, medium exchange to a medium in which 0.1% BSA and 10 mM HEPES are added into a Ham's F12(−) medium which is a serum-free medium was performed, and the culture was further performed at 37° C. for 18 hours, then into which the compound 9 (10 μM) was added. After the addition, the resultant mixture was cultured at 37° C. for 1, 2, 6, 24, or 48 hours, and subjected to an assay. Further, as a negative control, the same experiment was performed with the NBD-C6-ceramide. Herein, ceramide, sphingosine, and the like are contained in the serum, and the incorporation and metabolism of these substances are constantly in progress. Therefore, in this experiment, firstly, the cells were cultured for 18 hours in a serum-free medium, and the incorporation and metabolism of a serum-derived compound were decreased, then the test compound was added, and thus an experimental system was constructed such that the pure incorporation and metabolism of the test compound itself can be measured.
As the assay, firstly, the incorporation of the ceramide derivative (compound 9) into a cell was evaluated. Specifically, cells that had been cultured for a predetermined time in the presence of the compound were washed twice with HBSS (Hank's Balanced Salt Solution: pH 7.4) containing 0.1% BSA and 10 mM HEPES, and then using a cell scraper and 250 μL of HBSS, the cells were detached from the wells. Into the cell extract thus obtained, 500 μL of chloroform, 500 μL of methanol, and 250 μL of water were added, and the cell extract was prepared in two-layer form of an organic layer and an aqueous layer. Further, since the ceramide derivative and other major sphingolipids are compounds that migrate to the organic layer, the cell extract in two-layer form was centrifuged for 10 minutes under the conditions of 3000 rpm at 4° C., and thus only the organic layer was isolated.
On the other hand, as another assay, the metabolism of the ceramide derivative (compound 9) was evaluated. Specifically, 20 μL of the organic layer sample thus obtained above was spotted on a TLC plate, and developed with a development solvent (1-butanol:acetic acid:water=3:1:1), then the intracellular metabolism of the sample was evaluated by using an image analyzer (LAS1000).
Further, by using a free software (Image J), the abundance of each metabolite was converted into a numerical value. The results are shown in E) of FIG. 2 (NBD-C6-ceramide (negative control)), and F) of FIG. 2 (compound 9). In the meantime, the numerical value of each amount of C16-glucosylceramide-NBD-like molecules and C16-sphingomyelin-NBD-like molecules was determined from the mobility in the TLC.

[5] = tested on: CHO cells; experiment: Evaluation of incorporation into cell (fluorescence of organic layer extract); assay type: cell-based, hamster; details: 10 μM, 1, 2, 6, 24 or 48 hours at 37° C.
Protocol: as §1, with “Herein, ceramide, sphingosine, and the like are contained in the serum, and the incorporation and metabolism of these substances are constantly in progress.” left out
As the assay, firstly, the incorporation of the ceramide derivative (compound 9) into a cell was evaluated. […]
Subsequently, the obtained organic layer sample was added into a 96-well plate, and the fluorescence emission of the ceramide derivative was detected by using an image analyzer (LAS1000, manufactured by FUJIFILM Corporation). […]

[6] = tested on: CHO cells; experiment: Evaluation of cytotoxicity (changes in cell number); assay type: cell-based, hamster; details: 10 μM; for cell number after addition (24 hours) relative to before addition: before addition = 100%, no additives 170 ± 51%; for cell number after addition (24 hours): serum-free medium, before addition 12,600 cells/well
Protocol: Subsequently, as to the compound 9 synthesized in the above, the cytotoxicity was evaluated as the effect on the change in cell number.
Firstly, the CHO cells were seeded into each well of a 24-well plate at 1×10^4 cells/well, and cultured in a Ham's F12(+) medium at 37° C. for one day. The cell number one day after the culture was 1.26×10^4 cells/well. After that, medium exchange to a medium in which 0.1% BSA and 10 mM HEPES are added into a Ham's F12(−) medium which is a serum-free medium was performed, and in the presence of the compound 9 (10 μM), the culture was further performed for one day. Further, as a negative control, the same experiment was performed with the NBD-C6-ceramide described in Non Patent Literature 1. In addition, the same experiment was also performed for the case of no additives.

[7] = tested on: Golgi apparatus in CHO cells; details: 30 minutes after addition, or two hours later when metabolized; J Cell Biol. 1985; cited from earlier work
[8] = tested on: cell; experiment: Staining of the Golgi apparatus with conventional probe (investigation by the present inventors); assay type: cell-based; details: cytotoxic effect
Protocol: A NBD-C6-ceramide has a cytotoxic effect, therefore, kills a cell itself within 24 hours from the incorporation into the cell, and thus the cell observation cannot be continued anymore. Further, an endogenous ceramide is metabolized into a glucosylceramide by being added with an oligosaccharide in the Golgi apparatus, or metabolized into sphingomyelin by receiving the transfer of phosphocholine from phosphatidylcholine, as a result, the metabolite is sent to cell membrane and becomes a component of the cell membrane. The NBD-C6-ceramide is, in the same manner as in the endogenous ceramide, metabolized to glucosylceramide or sphingomyelin in the Golgi apparatus, and the metabolite is transported to cell membrane from the Golgi in a few hours, therefore, the continuous staining is also difficult in this respect.

fraction remaining as it is without being metabolized in 48 hours ([4]; 48 hours) [%] | SMILES | fluorescence (emission) intensity in cells with the lapse of time [1] | co-localization with Golgi marker BODIPY-TR-Ceramide [2] | alteration of cell shape (roundation) [3] | fraction that became a metabolite in 6 hours [4] | amount incorporated into a cell with the lapse of time [5] | cell number after addition (24 hours) relative to before addition [6] | cell number after addition (24 hours) relative to before addition ([6]; listed as Acetyl-C16-ceramide-NBD) [%] | cell number after addition (24 hours) [6] | retention in the Golgi apparatus after addition into a cell [7] | amount of compound after metabolism in 24 hours ([4]; 24 hours) | fraction metabolized in 48 hours ([4]; 48 hours) [%] | time from incorporation into the cell until the cell is killed [8] [h]
≥ 70 | CCCCCCCCCCCCCCCC(=O)N[C@@H](COC(C)=O)[C@H](O)/C=C/CCCCCCCCCNc1ccc([N+](=O)[O-])c2nonc12 [compound 9, (2S,3R)-(E)-3-hydroxy-14-((7-nitrobenzo[c][1,2,5]oxadiazole-4-yl)amino)-2-palmitamide tetradec-4-en-1-yl acetate] | gradually increased with the lapse of time | co-localized with the BODIPY-TR-Ceramide | the roundation was not observed | around 10% | increased with the lapse of time | 159% | 159 ± 33 | 20,000 ± 4100 cells/well |  |  |  | 
 | CCCCCCCCCCCCC/C=C/[C@@H](O)[C@H](CO)NC(=O)CCCCCNc1ccc([N+](=O)[O-])c2nonc12 [NBD-C6-ceramide] | attenuated with the lapse of time | co-localized with the BODIPY-TR-Ceramide | the alteration of cell shapge (roundation) was observed | 30% | decreased with the lapse of time | 77% and 77 ± 2% |  | 9,690 ± 260 cells/well | remains in the Golgi apparatus | decreased by half | ~90 | ≤ 24
